Experimental data from patent US20110223666A1, “CYTOPLASM EXPOSURE ADDITIVE AND METHOD FOR EXPOSING PARTICLES DELIVERED INTO CELL TO CYTOPLASM FROM ENDOCYTIC VESICLES IN INTACT CELL” (MEDISCOV INC., priority 2008, published 2011).

Test system: HeLa cells
Experiment: Exposure of dasatinib-modified particles from endocytic vesicles to cytoplasm, seen as co-localization with EGFP-ABL1 fluorescence
Assay type: cell-based
Conditions: HeLa cells transfected with EGFP-ABL1 with dasatinib-particles; cells fixed by the additive, not observed in a living state
Description: In addition, ABL1 (GenBank Acc. No. NM—198291) which binds to dasatinib was used for another linker constituting a mediator.
EGFP-ABL1 expression vector was produced by a known method (Sambrook & Russell, 2001, Molecular Cloning, Cold Spring Harbor Laboratory Press). After HeLa cells were subcultured to 6,000 cells/well on a 96-well plate, the expression vector DNA was transfected into a cell as mentioned in Example 1.
The particles modified with dasatinib were introduced into the cell transfected with DNA in the following. The cultured HeLa cells were treated with the modified particles according to the following processes:
1) Streptavidin-magnetic particles were mixed with dasatinib-biotin and the mixture was allowed to be reacted with each other. As a result, the particles modified with dasatinib were prepared;
In this embodiment, Olympus fluorescence microscope, FV1000, equipped with the object lens of Uplan Apo 40×/0.85 was used to obtain transmitted images and fluorescent images in the cells.

Which “function as a cytoplasm exposure additive (exposure of particles to cytoplasm from endocytic vesicles)” value (“function” below) does the source give for `CO` [methanol] here?
Its value is “exposed the particles to cytoplasm from endocytic vesicles effectively”.

With paraformaldehyde as the compound, how does the “function” value read?
The value was “exposed the particles to cytoplasm from endocytic vesicles effectively”.

`CCO` [ethanol] was tested. Which “function” value did it give?
The value was “exposed the particles to cytoplasm from endocytic vesicles effectively”.
